Results reported in article PMC5267425, “Identification of small molecule modulators of HIV-1 Tat and Rev protein accumulation” (Retrovirology, 2017).

System: cellular gene expression in HeLa rtTA HIV∆Mls cells

With Cc1cc(NCc2cccnc2)n2ncc(-c3ccc(Cl)cc3)c2n1 [Compound 791, 3-(4-chlorophenyl)-5-methyl-N-(3-pyridinylmethyl)pyrazolo[1,5-a]pyrimidin-7-amine] the “DCAF6 expression fold change” value was 0.581, the “DCAF17 Mean fold change” value was 1.433 and the “DCI expression fold change” value was 1.321. For the same molecule, the “DCLRE1A expression fold change” value was 1.408, the “DCXR expression fold change” value was 1.050 and the “DDB2 expression fold change” value was 1.399. The “DDR1 expression fold change” value was 0.690, the “DDX10 expression fold change” value was 1.177 and the “DDX31 Mean fold change” value was 1.434. The “DDX50 expression fold change” value was 1.253, the “DENND4B expression fold change” value was 1.243 and the “DET1 expression fold change” value was 1.366. The “DGCR2 expression fold change” value was 0.881, the “DGKQ expression fold change” value was 1.343 and the “DHX35 expression fold change” value was 1.203. For the same molecule, the “DLG4 expression fold change” value was 1.263, the “DMAP1 expression fold change” value was 0.891 and the “DNAH14 Mean fold change” value was 1.678. The “DNAH17 Mean fold change” value was 1.839, the “DNAJA3 Mean fold change” value was 1.796 and the “DNAJB14 expression fold change” value was 1.264. For the same molecule, the “DNASE2 expression fold change” value was 1.378, the “DNMT3L expression fold change” value was 0.498 and the “DOCK1 expression fold change” value was 0.758. For the same molecule, the “DOCK8 expression fold change” value was 0.595, the “DPH5 Mean fold change” value was 1.479 and the “DPM2 expression fold change” value was 1.136. The “DPYSL2 Mean fold change” value was 1.729, the “DSE expression fold change” value was 0.858 and the “DUS4L Mean fold change” value was 1.822. For the same molecule, the “DUSP1 expression fold change” value was 0.730, the “DUSP8 expression fold change” value was 0.576 and the “DYM expression fold change” value was 1.260. For the same molecule, the “DYNC1I2 expression fold change” value was 0.857, the “DYNLT1 expression fold change” value was 1.171 and the “DYRK2 expression fold change” value was 1.206. The “EARS2 expression fold change” value was 1.134, the “ECT2 expression fold change” value was 0.716 and the “EDA2R Mean fold change” value was 1.924. The “EDEM1 expression fold change” value was 1.273, the “EFCAB2 expression fold change” value was 1.159 and the “EIF1 Mean fold change” value was 1.516. The “EIF2S2 Mean fold change” value was 1.734, the “EIF2S3 expression fold change” value was 1.243 and the “EIF4EBP1 Mean fold change” value was 2.239. For the same molecule, the “ELMO2 expression fold change” value was 1.211, the “ELP3 expression fold change” value was 1.135 and the “EMP2 expression fold change” value was 0.740. The “ENOPH1 Mean fold change” value was 1.427, the “EPB41L2 expression fold change” value was 0.862 and the “EPB41L4A expression fold change” value was 0.788. For the same molecule, the “EPB41 Mean fold change” value was 1.417, the “EPM2AIP1 expression fold change” value was 1.093 and the “EPRS expression fold change” value was 1.271. The “ERCC2 expression fold change” value was 0.790, the “ERGIC1 expression fold change” value was 1.185 and the “ERICH1 expression fold change” value was 0.941. The “ERMAP Mean fold change” value was 1.499, the “ERRFI1 Mean fold change” value was 1.452 and the “ESAM expression fold change” value was 0.673. The “ESCO1 expression fold change” value was 1.256, the “ESF1 expression fold change” value was 1.072 and the “ESRRA expression fold change” value was 1.275. For the same molecule, the “ESYT2 expression fold change” value was 0.824, the “ETV4 Mean fold change” value was 4.291 and the “ETV6 expression fold change” value was 1.253. The “F2R expression fold change” value was 0.551, the “FAIM3 expression fold change” value was 1.351 and the “FAM13B expression fold change” value was 0.771. For the same molecule, the “FAM27E2 Mean fold change” value was 2.360, the “FAM83D expression fold change” value was 0.622 and the “FAM83G expression fold change” value was 1.328. The “FAM86A Mean fold change” value was 1.567, the “FAM86B1 Mean fold change” value was 2.493 and the “FAM86B2 Mean fold change” value was 2.843. The “FAM86C Mean fold change” value was 1.599, the “FAM102A expression fold change” value was 1.402 and the “FAM107B expression fold change” value was 1.234. For the same molecule, the “FAM114A1 expression fold change” value was 0.853, the “FAM119B expression fold change” value was 1.218 and the “FAM127A expression fold change” value was 0.756. For the same molecule, the “FAM133B expression fold change” value was 1.056, the “FAM176B expression fold change” value was 1.310 and the “FAM179B expression fold change” value was 1.253. The “FAM192A expression fold change” value was 1.096, the “FAM195B expression fold change” value was 0.859 and the “FAM199X expression fold change” value was 1.145. For the same molecule, the “FAR1 expression fold change” value was 1.245, the “FARP1 expression fold change” value was 0.824 and the “FASTKD2 expression fold change” value was 1.173. For the same molecule, the “FBXL2 expression fold change” value was 0.756, the “FBXO22 expression fold change” value was 1.399 and the “FBXO28 expression fold change” value was 1.101. The “FBXO45 Mean fold change” value was 1.434, the “FBXW4 expression fold change” value was 1.381 and the “FBXW11 expression fold change” value was 1.080. The “FDFT1 expression fold change” value was 0.649, the “FECH expression fold change” value was 0.957 and the “FEM1C expression fold change” value was 1.387. The “FEZ2 expression fold change” value was 1.355, the “FGFR3 expression fold change” value was 0.612 and the “FLCN expression fold change” value was 1.383. For the same molecule, the “FLII expression fold change” value was 0.919, the “FLYWCH1 expression fold change” value was 1.367 and the “FOSL2 expression fold change” value was 1.375. For the same molecule, the “FOXF1 expression fold change” value was 1.318, the “FOXJ2 expression fold change” value was 1.277 and the “FOXJ3 expression fold change” value was 1.187. The “FOXN2 expression fold change” value was 1.082, the “FRAT1 expression fold change” value was 0.900 and the “FSTL1 expression fold change” value was 0.717. The “FUBP1 expression fold change” value was 0.781, the “FXYD5 expression fold change” value was 1.215 and the “FZR1 expression fold change” value was 0.784. The “GABARAPL2 expression fold change” value was 0.887, the “GADD45A Mean fold change” value was 2.491 and the “GALNT2 expression fold change” value was 0.621. The “GATA5 expression fold change” value was 1.360, the “GATSL1 expression fold change” value was 0.637 and the “GBA2 expression fold change” value was 1.203. For the same molecule, the “GCC1 Mean fold change” value was 1.971, the “GDF15 Mean fold change” value was 7.775 and the “GGA3 expression fold change” value was 1.172. The “GJD3 expression fold change” value was 1.295, the “GLCCI1 expression fold change” value was 0.781 and the “GLI2 expression fold change” value was 0.589. The “GNA13 expression fold change” value was 1.223, the “GNG10 expression fold change” value was 0.817 and the “GNL1 expression fold change” value was 1.145. The “GOLGA5 expression fold change” value was 1.153, the “GOLGA9P Mean fold change” value was 1.884 and the “GORAB expression fold change” value was 1.233. The “GORASP1 expression fold change” value was 0.859, the “GOSR1 expression fold change” value was 1.352 and the “GPC5 expression fold change” value was 1.250. For the same molecule, the “GPCPD1 Mean fold change” value was 2.287, the “GPD1L expression fold change” value was 1.252 and the “GPR176 expression fold change” value was 0.771. The “GPT2 Mean fold change” value was 2.731, the “GRAMD1C expression fold change” value was 1.186 and the “GRB10 Mean fold change” value was 1.714. For the same molecule, the “GRINL1A Mean fold change” value was 1.542, the “GRPEL2 Mean fold change” value was 1.903 and the “GTF2H3 expression fold change” value was 1.322. The “GTF3C1 expression fold change” value was 0.813, the “H3F3A expression fold change” value was 0.746 and the “HACL1 expression fold change” value was 0.803. The “HADHA Mean fold change” value was 1.441, the “HADHB Mean fold change” value was 1.600 and the “HAUS3 expression fold change” value was 1.330. For the same molecule, the “HAUS4 expression fold change” value was 1.250, the “HAUS6 Mean fold change” value was 1.910 and the “HAX1 Mean fold change” value was 1.624. The “HDAC1 expression fold change” value was 0.825, the “HDHD2 expression fold change” value was 1.223 and the “HEBP1 expression fold change” value was 1.199. The “HECTD1 expression fold change” value was 1.231, the “HEG1 expression fold change” value was 0.638 and the “HIF1A expression fold change” value was 1.219. For the same molecule, the “HINT3 expression fold change” value was 1.199, the “HIPK1 expression fold change” value was 1.092 and the “HIST1H3B expression fold change” value was 0.670. For the same molecule, the “HJURP expression fold change” value was 0.874, the “HMGB3 expression fold change” value was 0.753 and the “HMGN3 expression fold change” value was 0.687. For the same molecule, the “HNRNPH2 expression fold change” value was 0.704, the “HPS3 expression fold change” value was 1.235 and the “HRSP12 expression fold change” value was 1.297. For the same molecule, the “HSD17B1 expression fold change” value was 1.238, the “HSPA9 Mean fold change” value was 2.175 and the “HSPB6 Mean fold change” value was 2.845. For the same molecule, the “HSPB8 expression fold change” value was 0.812, the “IBTK expression fold change” value was 1.153 and the “ICAM1 Mean fold change” value was 1.829. For the same molecule, the “ICK expression fold change” value was 0.776, the “ID3 expression fold change” value was 0.580 and the “IDH2 expression fold change” value was 0.637. The “IDI1 expression fold change” value was 0.495, the “IFNGR1 expression fold change” value was 1.224 and the “IFRD1 Mean fold change” value was 2.095. For the same molecule, the “IKBIP expression fold change” value was 0.658, the “IMMT expression fold change” value was 1.075 and the “IMPA2 Mean fold change” value was 1.561. The “INCENP expression fold change” value was 0.617, the “INO80C expression fold change” value was 0.723 and the “INPP1 expression fold change” value was 1.347. The “IPO13 expression fold change” value was 1.247, the “IQCB1 expression fold change” value was 1.350 and the “ISCU Mean fold change” value was 1.477. For the same molecule, the “ITGA5 expression fold change” value was 1.145, the “ITPKC expression fold change” value was 1.186 and the “IVNS1ABP expression fold change” value was 1.200. For the same molecule, the “JTB expression fold change” value was 1.203, the “JUB expression fold change” value was 0.585 and the “KANK2 expression fold change” value was 0.798. For the same molecule, the “KCNJ2 Mean fold change” value was 1.873, the “KCTD1 expression fold change” value was 1.252 and the “KCTD13 expression fold change” value was 1.373. The “KCTD15 Mean fold change” value was 1.965, the “KCTD20 expression fold change” value was 1.124 and the “KHDRBS1 expression fold change” value was 0.750. For the same molecule, the “KHSRP expression fold change” value was 0.864, the “KIAA0232 expression fold change” value was 1.232 and the “KIAA0562 expression fold change” value was 1.119. For the same molecule, the “KIAA0649 expression fold change” value was 1.279, the “KIAA0753 expression fold change” value was 1.283 and the “KIAA0895 expression fold change” value was 1.129. For the same molecule, the “KIAA1430 expression fold change” value was 1.140, the “KIAA1826 expression fold change” value was 1.191 and the “KIAA2013 expression fold change” value was 0.927. The “KIF3B expression fold change” value was 0.839, the “KIF5C expression fold change” value was 0.782 and the “KIF11 expression fold change” value was 0.660. The “KIF18B expression fold change” value was 0.771, the “KIF20B expression fold change” value was 0.622 and the “KIFC1 expression fold change” value was 0.753. For the same molecule, the “KITLG expression fold change” value was 0.707, the “KLF9 expression fold change” value was 0.665 and the “KLF11 Mean fold change” value was 1.487. For the same molecule, the “KLHDC3 expression fold change” value was 0.728, the “KLHL35 Mean fold change” value was 1.651 and the “KPNA2 expression fold change” value was 0.620. For the same molecule, the “KRR1 expression fold change” value was 1.251, the “LACE1 Mean fold change” value was 1.553 and the “LAPTM4B expression fold change” value was 0.781. For the same molecule, the “LARP6 Mean fold change” value was 3.094, the “LARS expression fold change” value was 1.394 and the “LASS5 expression fold change” value was 0.895. For the same molecule, the “LGALS9 Mean fold change” value was 1.949, the “LGTN expression fold change” value was 1.255 and the “LHPP Mean fold change” value was 1.532. For the same molecule, the “LIG3 expression fold change” value was 1.068, the “LIN7B expression fold change” value was 1.185 and the “LMO7 expression fold change” value was 0.663. The “LONP1 Mean fold change” value was 2.312, the “LRP5L expression fold change” value was 1.303 and the “LRPPRC expression fold change” value was 1.312. The “LRRC8D Mean fold change” value was 1.472, the “LRRC16A expression fold change” value was 0.608 and the “LRRC37A3 Mean fold change” value was 1.746. The “LRRC37B Mean fold change” value was 1.443, the “LRSAM1 expression fold change” value was 1.153 and the “LYRM2 expression fold change” value was 1.176. The “LYSMD1 expression fold change” value was 1.216, the “LZTR1 expression fold change” value was 0.877 and the “MAGT1 expression fold change” value was 0.903. The “MAK16 Mean fold change” value was 1.459, the “MAML2 expression fold change” value was 0.717 and the “MANF expression fold change” value was 0.731. The “MAP1B Mean fold change” value was 3.550, the “MAP3K12 expression fold change” value was 1.348 and the “MAP3K14 expression fold change” value was 0.532. The “MAP4K4 expression fold change” value was 0.822.
